Experimental data reported in ChEMBL document CHEMBL1201862, “PubChem BioAssay data set” (2004).
One block for each molecule: values may come before it. Activity calls are given as the source filed them.

Tests used:
Steroidogenic factor 1 = Steroidogenic factor 1 (Homo sapiens, UniProt Q13285); experiment: Counterscreen for inverse agonists of the liver receptor homolog-1 (LRH-1; NR5A2): Luminescence-based cell-based high throughput dose response assay to identify inverse agonists of the Steroidogenic Factor 1 Nuclear Receptor (SF1; NR5A1).; assay type: functional
Chain of Steroidogenic factor 1 (Q13285 whole entry): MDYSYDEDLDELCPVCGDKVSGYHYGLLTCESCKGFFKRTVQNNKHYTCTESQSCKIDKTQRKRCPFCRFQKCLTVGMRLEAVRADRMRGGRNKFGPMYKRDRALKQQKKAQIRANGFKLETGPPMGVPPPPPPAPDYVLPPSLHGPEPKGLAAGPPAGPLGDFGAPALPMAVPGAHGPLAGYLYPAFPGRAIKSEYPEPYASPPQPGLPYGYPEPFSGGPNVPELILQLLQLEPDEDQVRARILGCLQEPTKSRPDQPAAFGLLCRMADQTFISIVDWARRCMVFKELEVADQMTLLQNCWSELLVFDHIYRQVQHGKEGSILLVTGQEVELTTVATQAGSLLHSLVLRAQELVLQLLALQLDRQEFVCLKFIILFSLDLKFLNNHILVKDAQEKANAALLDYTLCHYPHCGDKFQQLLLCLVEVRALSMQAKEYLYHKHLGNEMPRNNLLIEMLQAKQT

[1] = molecular target: Nuclear receptor subfamily 5 group A member 2 (Homo sapiens, UniProt O00482); assay type: functional, cell-based;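 further: HEK293T cells transfected with LRH-1 and a StAR promoter luciferase reporter; potency for inhibitors that lower LRH-1 driven reporter light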
Chain of Nuclear receptor subfamily 5 group A member 2 (O00482 whole entry): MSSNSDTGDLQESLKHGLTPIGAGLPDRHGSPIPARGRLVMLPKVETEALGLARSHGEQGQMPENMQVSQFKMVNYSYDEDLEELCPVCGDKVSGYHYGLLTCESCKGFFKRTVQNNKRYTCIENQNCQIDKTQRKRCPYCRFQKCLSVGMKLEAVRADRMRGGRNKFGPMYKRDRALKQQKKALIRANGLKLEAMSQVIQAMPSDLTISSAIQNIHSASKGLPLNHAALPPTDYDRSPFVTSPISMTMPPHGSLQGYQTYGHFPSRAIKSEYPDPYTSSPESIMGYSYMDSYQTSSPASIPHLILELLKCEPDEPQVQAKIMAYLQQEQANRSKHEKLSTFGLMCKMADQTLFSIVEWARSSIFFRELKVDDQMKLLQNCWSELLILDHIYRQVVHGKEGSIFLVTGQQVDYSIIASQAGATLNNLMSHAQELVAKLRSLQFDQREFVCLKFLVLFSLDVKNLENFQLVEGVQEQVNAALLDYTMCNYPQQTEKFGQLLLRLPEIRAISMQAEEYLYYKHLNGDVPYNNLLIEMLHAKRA

[2] = StAR promoter reporter inhibition counter-screen, dose response, counter-screen for LRH-1 inverse agonist project, cell-based, luminescence, luciferase reporter (AID 651969); assay type: functional
[3] = IGROV1 ovarian cancer cell cytotoxicity, dose response, PAX8 inhibitor project, plate reader, dry powder samples (AID 743043); assay type: functional, cell-based; conditions: IGROV-1
[4] = NIH:OVCAR-3 ovarian cancer cell cytotoxicity, dose response, PAX8 inhibitor project, plate reader, dry powder samples (AID 743044); assay type: functional, cell-based
Paired box protein Pax-8 = Paired box protein Pax-8 (Homo sapiens, UniProt Q06710); experiment: inhibitors of PAX8-driven TPO luciferase reporter, dose response, RMG-I cells, cherry-pick (AID 687027); assay type: functional, cell-based;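 further: luciferase reporter driven by Pax8 target thyroperoxidase promoter measured by SteadyGlo luminescence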
Chain of Paired box protein Pax-8 (Q06710 whole entry): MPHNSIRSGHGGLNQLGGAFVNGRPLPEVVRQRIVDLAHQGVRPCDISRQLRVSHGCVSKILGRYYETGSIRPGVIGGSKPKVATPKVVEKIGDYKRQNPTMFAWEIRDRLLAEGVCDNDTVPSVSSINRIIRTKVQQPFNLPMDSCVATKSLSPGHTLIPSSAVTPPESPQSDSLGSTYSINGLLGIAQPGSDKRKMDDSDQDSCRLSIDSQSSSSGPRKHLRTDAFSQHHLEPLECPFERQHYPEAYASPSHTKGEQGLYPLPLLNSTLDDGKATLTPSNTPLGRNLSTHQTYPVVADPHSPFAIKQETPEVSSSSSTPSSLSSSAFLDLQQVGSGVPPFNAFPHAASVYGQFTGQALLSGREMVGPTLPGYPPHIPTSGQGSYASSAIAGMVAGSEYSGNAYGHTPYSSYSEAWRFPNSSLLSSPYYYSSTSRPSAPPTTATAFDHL

[5] = cytotoxicity in OVCAR8 ovarian cancer cells, dose response, PAX8 project, cell-based, plate reader, dry powder samples (AID 743197); assay type: functional; conditions: OVCAR-8
[6] = non-specific cell cytotoxicity, dose response, cytotoxicity control for PAX8 inhibitor project, plate reader, dry powder samples (AID 743021); assay type: functional, cell-based
fMet-Leu-Phe receptor = molecular target: T1, fMet-Leu-Phe receptor (Homo sapiens, UniProt P21462); experiment: FPR ligands, dose response (AID 519); assay type: functional
T1 sequence (P21462 whole entry): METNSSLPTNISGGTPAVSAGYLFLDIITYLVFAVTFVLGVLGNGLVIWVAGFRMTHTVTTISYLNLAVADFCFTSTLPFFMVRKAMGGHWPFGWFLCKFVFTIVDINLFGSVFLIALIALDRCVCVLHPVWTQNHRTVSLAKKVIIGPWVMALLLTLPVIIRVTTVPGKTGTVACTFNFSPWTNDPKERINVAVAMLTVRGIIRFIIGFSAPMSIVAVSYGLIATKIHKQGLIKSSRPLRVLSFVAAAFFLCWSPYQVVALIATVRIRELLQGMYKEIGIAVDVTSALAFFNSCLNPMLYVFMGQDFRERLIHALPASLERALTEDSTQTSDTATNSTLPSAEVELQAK

[7] = molecular target: Disintegrin and metalloproteinase domain-containing protein 17 (Homo sapiens, UniProt P78536); experiment: ADAM17 protease inhibitors, dose response, counter-screen for ADAM10 exosite inhibitor project, biochemical, quenched FRET substrate (AID 743253)
Chain of Disintegrin and metalloproteinase domain-containing protein 17 (P78536 whole entry, the tested form may be a part): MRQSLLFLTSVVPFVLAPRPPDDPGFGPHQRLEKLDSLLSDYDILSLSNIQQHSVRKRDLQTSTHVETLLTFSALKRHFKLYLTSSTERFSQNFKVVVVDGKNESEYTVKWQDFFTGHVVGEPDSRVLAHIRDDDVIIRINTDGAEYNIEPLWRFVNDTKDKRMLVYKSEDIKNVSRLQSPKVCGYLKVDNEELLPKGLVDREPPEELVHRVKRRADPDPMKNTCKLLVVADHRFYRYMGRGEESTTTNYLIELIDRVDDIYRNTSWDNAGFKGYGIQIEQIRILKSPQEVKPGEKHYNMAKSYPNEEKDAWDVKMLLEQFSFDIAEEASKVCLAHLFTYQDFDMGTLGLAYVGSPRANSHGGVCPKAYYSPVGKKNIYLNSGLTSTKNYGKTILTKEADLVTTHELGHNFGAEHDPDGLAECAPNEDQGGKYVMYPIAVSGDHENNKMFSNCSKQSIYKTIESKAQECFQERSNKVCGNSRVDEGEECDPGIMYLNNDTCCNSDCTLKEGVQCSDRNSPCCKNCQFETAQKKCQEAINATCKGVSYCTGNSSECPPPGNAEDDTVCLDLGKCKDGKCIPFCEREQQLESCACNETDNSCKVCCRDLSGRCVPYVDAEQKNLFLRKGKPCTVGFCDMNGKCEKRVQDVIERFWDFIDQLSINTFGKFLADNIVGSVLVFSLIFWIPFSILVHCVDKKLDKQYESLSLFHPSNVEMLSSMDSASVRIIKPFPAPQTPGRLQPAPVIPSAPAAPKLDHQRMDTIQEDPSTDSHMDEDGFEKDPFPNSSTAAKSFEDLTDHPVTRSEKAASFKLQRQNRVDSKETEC

[8] = ADAM10 inhibitors, peptide cleavage, dose response, biochemical, QFRET (AID 743254);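 further: ADAM10 enzyme with the DM2 quenched FRET peptide as substrate; EDANS fluorescence gain as the protease cuts the substrate; inhibitor potency against ADAM10 proteolytic activity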
[9] = molecular target: T2, Tyrosine-protein phosphatase non-receptor type 7 (Homo sapiens, UniProt P35236); experiment: inhibitors of human HePTP phosphatase, […], biochemical, absorbance, leukemia target (AID 521); assay type: functional
T2 sequence (P35236 whole entry): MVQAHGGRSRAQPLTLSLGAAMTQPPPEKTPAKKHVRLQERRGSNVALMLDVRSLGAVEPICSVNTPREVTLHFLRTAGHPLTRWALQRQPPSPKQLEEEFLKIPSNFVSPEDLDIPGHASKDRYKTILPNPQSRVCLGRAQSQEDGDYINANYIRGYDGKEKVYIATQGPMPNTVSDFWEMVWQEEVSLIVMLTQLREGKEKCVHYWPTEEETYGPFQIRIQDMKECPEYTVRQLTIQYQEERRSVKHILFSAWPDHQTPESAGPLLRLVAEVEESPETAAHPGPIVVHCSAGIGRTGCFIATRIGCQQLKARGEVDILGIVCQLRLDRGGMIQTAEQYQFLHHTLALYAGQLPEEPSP

[10] = CRF-BP/CRF-R2 complex antagonists, dose response, cell-based, uHTS hits, 384-well (AID 651639); assay type: functional, Homo sapiens; conditions: read-out: IC50_Mean
[11] = molecular target: T3, Corticotropin-releasing factor receptor 2/Corticotropin-releasing factor-binding protein (Homo sapiens, UniProt P24387+Q13324); experiment: activators of CRF receptor 2 with binding protein – uHTS hits, confirmation (AID 602473); assay type: functional; conditions: read-out: EC50_Mean
T3 sequence (Q13324 whole entry): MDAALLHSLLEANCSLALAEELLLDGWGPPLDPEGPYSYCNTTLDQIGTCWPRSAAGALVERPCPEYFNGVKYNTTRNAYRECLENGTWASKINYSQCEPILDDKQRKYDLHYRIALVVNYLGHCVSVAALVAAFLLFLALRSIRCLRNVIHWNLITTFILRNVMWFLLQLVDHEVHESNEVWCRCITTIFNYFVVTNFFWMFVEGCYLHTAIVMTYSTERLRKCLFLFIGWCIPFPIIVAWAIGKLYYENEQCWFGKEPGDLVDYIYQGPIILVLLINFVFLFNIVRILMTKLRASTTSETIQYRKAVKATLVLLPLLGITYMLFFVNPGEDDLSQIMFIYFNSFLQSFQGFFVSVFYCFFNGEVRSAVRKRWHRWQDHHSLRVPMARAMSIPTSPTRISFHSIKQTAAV
T3 sequence (P24387 whole entry): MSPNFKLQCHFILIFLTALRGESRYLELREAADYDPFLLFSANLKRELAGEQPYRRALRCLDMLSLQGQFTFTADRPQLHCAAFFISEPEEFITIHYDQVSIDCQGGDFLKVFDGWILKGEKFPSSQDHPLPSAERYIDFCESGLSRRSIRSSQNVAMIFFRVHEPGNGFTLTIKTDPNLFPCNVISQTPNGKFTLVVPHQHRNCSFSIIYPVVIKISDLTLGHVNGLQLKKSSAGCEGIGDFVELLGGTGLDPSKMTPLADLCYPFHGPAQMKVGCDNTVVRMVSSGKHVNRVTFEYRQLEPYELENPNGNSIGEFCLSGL

[12] = molecular target: T3, Corticotropin-releasing factor receptor 2/Corticotropin-releasing factor-binding protein; experiment: Dose Response confirmation of uHTS hits for small molecule antagonists of the CRF-binding protein and CRF-R2 receptor complex.; assay type: functional; conditions: read-out: IC50_Mean

Structure (SMILES): COCCNc1ccc([N+](=O)[O-])cc1C(=O)NC1CCCc2ccccc21 (stereo not given)
IC50 (Steroidogenic factor 1): 5.53 µM (active)
IC50 [1]: 9.5 µM (active)
IC50 [2]: 35.9 µM (inactive)

Structure (SMILES): C[C@@H]1CN([C@@H](C)CO)C(=O)c2cc(NC(=O)CCC(F)(F)F)ccc2O[C@@H](C)CCCCO[C@H]1CN(C)Cc1ccc(C(F)(F)F)cc1
AC50 [3]: 65.5 µM (active)
AC50 [4]: 17.2 µM (active)
AC50 (Paired box protein Pax-8): 2.43 µM (active)
AC50 [5]: 50.8 µM (active)

Structure (SMILES): CCS(=O)(=O)N1CC(=O)N2[C@H](CO)[C@@H](c3ccc(-c4ccccc4F)cc3)[C@H]2C1
AC50 [3]: 28.6 µM (active)
AC50 [6]: 60.5 µM (active)
AC50 [4]: 14.1 µM (active)
AC50 (Paired box protein Pax-8): 5.26 µM (active)
AC50 [5]: 63 µM (active)

Structure (SMILES): CCN(CC)C(=O)[C@H]1C[C@H](CC(=O)NC/C=C(\C)CCC=C(C)C)C(=O)N2CCc3c([nH]c4ccc(Cl)cc34)[C@]12C
IC50 [10]: 1.72 µM (active)
EC50 [11]: > 53 µM (inactive)
IC50 [12]: < 0.368 µM (active)

The next lines start with the values.

Ki (fMet-Leu-Phe receptor): > 66.7 µM (inactive)
Structure (SMILES): COc1ccc(OC)c(C2C(C(=O)c3cccs3)=C(O)C(=O)N2c2cc(C)on2)c1 (stereo not given)

Ki (fMet-Leu-Phe receptor): > 66.7 µM (inactive)
Structure (SMILES): CCCNC(=O)CS(=O)(=O)Cc1nc(-c2cccc(OC)c2)oc1C

IC50 [7]: > 69.5 µM (inactive)
IC50 [8]: 13.9 µM (inactive)
Structure (SMILES): Cc1cc(F)ccc1C(O)c1nc(-c2cccc(OCc3ccccc3)c2)c[nH]1 (stereo not given)

IC50 [9]: > 100 µM (not active)
Structure (SMILES): CCOc1ccccc1-n1c(SCC(=O)NC(C)(C)C)nnc1-c1ccoc1C
